Source: US20080292584A1 (priority 2005, published 2008)
Several values for one entry are separate records, joined by “and”; a condition that tells them apart may be missing. Equal values may be shown once. Read-outs that look alike come from different tables or passages of the source.

What was measured:
CYP3A4 [1] = biological target: T1, CYP3A4 (Homo sapiens, UniProt P08684); conditions: for % Turnover Mean: both, human, microsomes, 1 h, pH 7.4
Procedure: (§2) Human liver microsomes pooled from 15 individuals (male and female) (Pool HMMC-PL020; CellzDirect, Inc., In Vitro Products and Services Division) were used in some experiments of this study.
(§3) % Turnover=100−{[TA(final)]/[mean of TA(0 min)]}×100,
(§4) % Inhibition of Turnover=100{1−([TA(0 min)]−[TA(final-inhibitor)])/([TA(0 min)]−[TA(final-no inhibitor)])}.
(§5) The inhibitors or vehicle control were incubated with the pooled human liver microsomes (1 mg/mL) and NADPH (1 mM) in 0.1 M phosphate buffer, pH 7.4. […] Incubations were conducted in triplicate and terminated by addition of organic solvent. Samples were extracted and analyzed by LC-MS/MS as described above.

CYP2B6 = assay: Chemical inhibition of metaxalone turnover in human liver microsomes, CYP2B6 inhibitor thio-TEPA; conditions: 1 mg/mL HLM, 60 min, with thio-TEPA; for % Turnover / % inhibition of turnover / Conc.: single replicates
Procedure: as §2, §3, §4, §5

CYP3A4 [2] = biological target: T1, CYP3A4; conditions: for Percent of VC / Specific Activity Mean ± SD: human, 10 min
Procedure: All other incubations were for 30 minutes.
(§1) Four replicates were performed.
as §1
Two replicates were performed.

CYP1A2 = biological target: T2, CYP1A2 (Homo sapiens, UniProt P05177); conditions: both, pH 7.4; for Mean Conc.: 60 min; for % Turnover Mean: microsomes, 1 h
T2 sequence (P05177 1-516): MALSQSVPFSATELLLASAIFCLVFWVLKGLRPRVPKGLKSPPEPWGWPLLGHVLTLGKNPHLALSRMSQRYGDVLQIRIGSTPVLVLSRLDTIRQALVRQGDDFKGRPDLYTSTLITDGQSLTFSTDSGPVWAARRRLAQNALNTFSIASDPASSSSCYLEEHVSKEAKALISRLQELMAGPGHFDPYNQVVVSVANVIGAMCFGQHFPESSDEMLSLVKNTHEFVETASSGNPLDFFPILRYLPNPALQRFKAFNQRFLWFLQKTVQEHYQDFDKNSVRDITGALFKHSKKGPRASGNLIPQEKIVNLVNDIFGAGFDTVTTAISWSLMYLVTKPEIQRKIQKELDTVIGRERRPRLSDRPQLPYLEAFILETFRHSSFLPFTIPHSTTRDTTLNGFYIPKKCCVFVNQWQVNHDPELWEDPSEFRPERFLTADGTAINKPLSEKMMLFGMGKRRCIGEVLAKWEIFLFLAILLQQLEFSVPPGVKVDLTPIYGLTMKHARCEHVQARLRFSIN
Procedure: as §2, §3, §4, §5

[3] = 400 mg oral dosage form; humans; cited from earlier work
human CYP1A2 = biological target: T3, human CYP1A2 (Homo sapiens, UniProt P05177); assay: Metabolism of metaxalone by expressed recombinant human CYP1A2 at 5 or 20 pmol (Example 4, LC-MS/MS); conditions: for percent turnover / % Turnover Mean / [metaxalone] Mean / % Turnover % / [metaxalone]: 60 min; for % Turnover % / [metaxalone]: single replicates, listed as Metaxalone
T3 sequence (P05177 2-516 limits assumed): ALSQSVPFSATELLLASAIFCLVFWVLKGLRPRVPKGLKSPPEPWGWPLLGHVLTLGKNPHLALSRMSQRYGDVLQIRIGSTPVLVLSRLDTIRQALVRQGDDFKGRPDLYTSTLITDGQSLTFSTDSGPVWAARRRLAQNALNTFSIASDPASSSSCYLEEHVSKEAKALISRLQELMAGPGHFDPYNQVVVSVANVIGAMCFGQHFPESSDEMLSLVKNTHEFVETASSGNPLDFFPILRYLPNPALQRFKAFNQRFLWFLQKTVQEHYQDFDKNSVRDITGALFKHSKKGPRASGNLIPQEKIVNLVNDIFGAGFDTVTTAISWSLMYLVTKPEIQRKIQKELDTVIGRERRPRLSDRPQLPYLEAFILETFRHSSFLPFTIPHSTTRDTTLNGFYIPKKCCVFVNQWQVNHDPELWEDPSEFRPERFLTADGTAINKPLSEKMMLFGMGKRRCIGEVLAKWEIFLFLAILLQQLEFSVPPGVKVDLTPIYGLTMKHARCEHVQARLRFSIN

CYP2C9 = CYP2C9 (Homo sapiens, UniProt P11712); assay: Metabolism of metaxalone by expressed recombinant human CYP2C9 at 5 or 20 pmol (Example 4); conditions: for % Turnover Mean / [metaxalone] Mean / % Turnover % / [metaxalone]: 60 min; for % Turnover % / [metaxalone]: single replicates, listed as Metaxalone
Procedure: For CYP2C9 and CYP2D6, SUPERSOMES singly-expressing different allelic variants of the cytochrome p450 isozyme were commercially available. For each of CYP2C9 and CYP2D6, only the *1 allele was tested in these experiments. […]

CYP2C19 = CYP2C19 (Homo sapiens, UniProt P33261); assay: in vitro; conditions: pooled human liver microsomes, probe S-mephenytoin 50 μM (to 4′-hydroxy mephenytoin);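 note: CYP2C19 incubations ran for 30 minutes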
Procedure: Microsomes were prepared by differential centrifugation of liver homogenates pooled from at least ten human donors.
After a 5 minute preincubation, NADPH regenerating system (NRS) was added to initiate the reaction. CYP2A6 and CYP3A4 incubations were for 10 minutes. All other incubations were for 30 minutes.
Incubations for CYP2C8 were terminated by adding 1.0 mL of ACN, while all other incubations were terminated by adding 1.0 mL of methanol.
Vehicle control experiments were performed to establish a baseline value for enzyme activity. […] Four replicates were performed.
Two replicates were performed. […] No interference was detected in any of the metabolite assay methods used.

[4] = 0.75 μM metaxalone, 1 mg/mL HLM, 60 min, with ketoconazole
[5] = 0.75 μM metaxalone, 1 mg/mL HLM, 60 min, with ketoconazole, single replicates
[6] = 7.5 μM metaxalone, 1 mg/mL HLM, 60 min, with ketoconazole
[7] = 7.5 μM metaxalone, 1 mg/mL HLM, 60 min, with ketoconazole, single replicates
[8] = 7.5 μM metaxalone, listed as Metaxalone
[9] = 0.75 μM metaxalone, 20 pmol cyp

CYP2C9, sequence (P11712 whole entry): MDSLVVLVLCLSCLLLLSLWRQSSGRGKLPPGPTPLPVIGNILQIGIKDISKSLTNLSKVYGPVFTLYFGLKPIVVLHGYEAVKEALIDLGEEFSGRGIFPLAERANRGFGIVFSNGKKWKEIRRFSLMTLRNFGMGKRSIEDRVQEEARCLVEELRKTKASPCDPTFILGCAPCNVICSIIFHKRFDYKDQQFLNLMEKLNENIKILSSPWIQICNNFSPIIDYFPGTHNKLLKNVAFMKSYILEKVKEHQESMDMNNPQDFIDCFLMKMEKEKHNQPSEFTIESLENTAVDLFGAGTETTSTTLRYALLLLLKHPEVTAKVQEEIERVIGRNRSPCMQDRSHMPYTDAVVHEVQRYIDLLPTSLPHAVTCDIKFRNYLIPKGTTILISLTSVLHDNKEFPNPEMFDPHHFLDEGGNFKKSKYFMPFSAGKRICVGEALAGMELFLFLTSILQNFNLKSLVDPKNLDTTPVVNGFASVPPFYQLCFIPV
T1 sequence (P08684 whole entry): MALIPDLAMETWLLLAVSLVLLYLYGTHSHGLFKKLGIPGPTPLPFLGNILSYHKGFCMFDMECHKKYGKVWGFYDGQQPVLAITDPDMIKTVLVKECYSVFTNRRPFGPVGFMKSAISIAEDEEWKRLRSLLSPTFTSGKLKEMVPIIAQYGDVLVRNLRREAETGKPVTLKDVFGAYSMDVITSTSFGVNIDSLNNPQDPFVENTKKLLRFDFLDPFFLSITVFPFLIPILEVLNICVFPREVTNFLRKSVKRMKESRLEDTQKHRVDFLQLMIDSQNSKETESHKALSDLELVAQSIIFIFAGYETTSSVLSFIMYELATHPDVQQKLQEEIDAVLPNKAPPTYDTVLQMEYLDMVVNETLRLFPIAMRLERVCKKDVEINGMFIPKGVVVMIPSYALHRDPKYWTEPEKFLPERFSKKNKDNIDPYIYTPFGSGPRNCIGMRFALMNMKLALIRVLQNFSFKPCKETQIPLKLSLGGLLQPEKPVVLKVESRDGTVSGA
CYP2C19, sequence (P33261 whole entry): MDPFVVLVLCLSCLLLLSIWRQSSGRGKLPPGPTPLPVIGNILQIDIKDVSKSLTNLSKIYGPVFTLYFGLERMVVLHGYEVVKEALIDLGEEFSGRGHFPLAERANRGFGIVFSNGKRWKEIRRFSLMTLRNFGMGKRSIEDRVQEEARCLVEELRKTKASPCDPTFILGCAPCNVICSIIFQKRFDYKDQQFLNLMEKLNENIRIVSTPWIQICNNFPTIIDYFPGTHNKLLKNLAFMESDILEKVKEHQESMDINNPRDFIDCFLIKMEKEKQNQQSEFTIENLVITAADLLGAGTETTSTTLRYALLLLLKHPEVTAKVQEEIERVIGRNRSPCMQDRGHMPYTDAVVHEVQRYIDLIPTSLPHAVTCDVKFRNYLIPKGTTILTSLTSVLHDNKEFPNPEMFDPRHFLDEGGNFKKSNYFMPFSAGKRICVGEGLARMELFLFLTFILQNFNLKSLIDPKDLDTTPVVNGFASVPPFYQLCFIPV

SMILES: Cc1cc(C)cc(OCC2CNC(=O)O2)c1 (stereo not drawn) [metaxalone, 5-[(3,5-dimethylphenoxy)methyl]-2-oxazolidinone]
- % inhibition of turnover Mean (CYP3A4 [1]; [4]): 126%
- Mean Conc. (CYP3A4 [1]; [4]): 0.831 µM
- % inhibition of turnover (CYP3A4 [1]; [5]): 132% and 116% and 130%
- Conc. (CYP3A4 [1]; [5]): 0.844 µM and 0.807 µM and 0.842 µM
- % inhibition of turnover Mean (CYP3A4 [1]; [6]): 130%
- Mean Conc. (CYP3A4 [1]; [6]): 9.13 µM
- % Turnover (CYP3A4 [1]; [7]): 0.28%
- % inhibition of turnover (CYP3A4 [1]; [7]): 98.8% and 161% and 129%
- Conc. (CYP3A4 [1]; [7]): 8.49 µM and 9.78 µM and 9.12 µM
- % Turnover Mean (CYP3A4 [1]; 0.75 μM): −7.71%
- % Turnover Mean (CYP3A4 [1]; 7.5 μM): −7.26%
- % Turnover Mean (CYP2B6; 0.75 μM metaxalone): 12.4%
- % inhibition of turnover Mean (CYP2B6; 0.75 μM metaxalone): 58.3%
- Mean Conc. (CYP2B6; 0.75 μM metaxalone): 0.676 µM
- % Turnover (CYP2B6; 0.75 μM metaxalone): 12.1% and 11.3% and 13.8%
- % inhibition of turnover (CYP2B6; 0.75 μM metaxalone): 59.3% and 62.0% and 53.7%
- Conc. (CYP2B6; 0.75 μM metaxalone): 0.678 µM and 0.684 µM and 0.665 µM
- % Turnover Mean (CYP2B6; 7.5 μM metaxalone): 14.0%
- % inhibition of turnover Mean (CYP2B6; 7.5 μM metaxalone): 43.3%
- Mean Conc. (CYP2B6; 7.5 μM metaxalone): 7.33 µM
- % Turnover (CYP2B6; 7.5 μM metaxalone): 7.7%
- % Turnover (CYP2B6; [8]): 14.8% and 19.4%
- % inhibition of turnover (CYP2B6; [8]): 68.7% and 40.0% and 21.1%
- Conc. (CYP2B6; [8]): 7.86 µM and 7.26 µM and 6.86 µM
- Inhibitor (CYP3A4 [2]): +
- Percent of VC (CYP3A4 [2]; 0.3 μM): 87.1%
- Specific Activity Mean ± SD (CYP3A4 [2]; 0.3 μM): 517 ± 10.4 pmol/min/mg protein
- Percent of VC (CYP3A4 [2]; 1 μM): 88.1%
- Specific Activity Mean ± SD (CYP3A4 [2]; 1 μM): 523 ± 2.83 pmol/min/mg protein
- Percent of VC (CYP3A4 [2]; 3 μM): 90.0%
- Specific Activity Mean ± SD (CYP3A4 [2]; 3 μM): 534 ± 3.36 pmol/min/mg protein
- Percent of VC (CYP3A4 [2]; 30 μM): 85.2%
- Specific Activity Mean ± SD (CYP3A4 [2]; 30 μM): 506 ± 29.6 pmol/min/mg protein
- Percent of VC (CYP3A4 [2]; 100 μM): 80.3%
- Specific Activity Mean ± SD (CYP3A4 [2]; 100 μM): 477 ± 36.3 pmol/min/mg protein
- Mean Conc. (CYP1A2; 0.75 μM): 0.797 µM
- Mean Conc. (CYP1A2; 7.5 μM): 8.11 µM
- % Turnover Mean (CYP1A2; 0.75 μM): −3.29%
- % Turnover Mean (CYP1A2; 7.5 μM): 4.77%
- observed increase of extent of absorption (AUC0-inf) with food relative to fasted treatment [3]: 115.4%
- observed increase of extent of absorption (AUC0-t) with food relative to fasted treatment [3]: 123.5%
- observed increase of peak plasma concentration (Cmax) with food relative to fasted treatment [3]: 177.5%
- percent turnover (human CYP1A2; 0.75 μM metaxalone, 5 pmol CYP450): 9.2%
- % Turnover Mean (human CYP1A2; 0.75 μM metaxalone, 5 pmol cyp): 9.2%
- [metaxalone] Mean (human CYP1A2; 0.75 μM metaxalone, 5 pmol cyp): 0.719 µM
- % Turnover % (human CYP1A2; 0.75 μM metaxalone, 5 pmol cyp): 17.5% and 6.2% and 3.9%
- [metaxalone] (human CYP1A2; 0.75 μM metaxalone, 5 pmol cyp): 0.653 µM and 0.742 µM and 0.761 µM
- percent turnover (human CYP1A2; 0.75 μM metaxalone, 20 pmol CYP450): 34.8%
- % Turnover Mean (human CYP1A2; [9]): 34.8%
- [metaxalone] Mean (human CYP1A2; [9]): 0.516 µM
- % Turnover % (human CYP1A2; [9]): 31.7% and 35.5% and 37.3%
- [metaxalone] (human CYP1A2; [9]): 0.540 µM and 0.511 µM and 0.496 µM
- percent turnover (human CYP1A2; 7.5 μM metaxalone, 5 pmol CYP450): 10.0%
- % Turnover Mean (human CYP1A2; 7.5 μM metaxalone, 5 pmol cyp): 10.0%
- [metaxalone] Mean (human CYP1A2; 7.5 μM metaxalone, 5 pmol cyp): 7.60 µM
- % Turnover % (human CYP1A2; 7.5 μM metaxalone, 5 pmol cyp): 14.3% and 5.7%
- [metaxalone] (human CYP1A2; 7.5 μM metaxalone, 5 pmol cyp): 7.24 µM and 7.97 µM
- percent turnover (human CYP1A2; 7.5 μM metaxalone, 20 pmol CYP450): 30.4%
- % Turnover Mean (human CYP1A2; 7.5 μM metaxalone, 20 pmol cyp): 30.4%
- [metaxalone] Mean (human CYP1A2; 7.5 μM metaxalone, 20 pmol cyp): 5.88 µM
- % Turnover % (human CYP1A2; 7.5 μM metaxalone, 20 pmol cyp): 33.3% and 32.3% and 25.5%
- [metaxalone] (human CYP1A2; 7.5 μM metaxalone, 20 pmol cyp): 5.63 µM and 5.72 µM and 6.29 µM
- Substrate (human CYP1A2; CYP isozyme 1A2, summary of studies): +
- % Turnover Mean (CYP2C9; 0.75 μM metaxalone, 5 pmol cyp): 1.6%
- [metaxalone] Mean (CYP2C9; 0.75 μM metaxalone, 5 pmol cyp): 0.779 µM
- % Turnover % (CYP2C9; 0.75 μM metaxalone, 5 pmol cyp): 6.1% and 5.4% and −6.8%
- [metaxalone] (CYP2C9; 0.75 μM metaxalone, 5 pmol cyp): 0.743 µM and 0.749 µM and 0.845 µM
- % Turnover Mean (CYP2C9; [9]): 2.4%
- [metaxalone] Mean (CYP2C9; [9]): 0.772 µM
- % Turnover % (CYP2C9; [9]): 8.7% and 4.0% and −5.4%
- [metaxalone] (CYP2C9; [9]): 0.722 µM and 0.760 µM and 0.834 µM
- % Turnover Mean (CYP2C9; 7.5 μM metaxalone, 5 pmol cyp): 7.9%
- [metaxalone] Mean (CYP2C9; 7.5 μM metaxalone, 5 pmol cyp): 7.78 µM
- % Turnover % (CYP2C9; 7.5 μM metaxalone, 5 pmol cyp): 14.3% and 2.9% and 6.4%
- [metaxalone] (CYP2C9; 7.5 μM metaxalone, 5 pmol cyp): 7.24 µM and 8.20 µM and 7.90 µM
- % Turnover Mean (CYP2C9; 7.5 μM metaxalone, 20 pmol cyp): 3.7%
- [metaxalone] Mean (CYP2C9; 7.5 μM metaxalone, 20 pmol cyp): 8.13 µM
- % Turnover % (CYP2C9; 7.5 μM metaxalone, 20 pmol cyp): −1.1% and 1.6% and 10.7%
- [metaxalone] (CYP2C9; 7.5 μM metaxalone, 20 pmol cyp): 8.54 µM and 8.31 µM and 7.54 µM
- Substrate (CYP2C9; CYP isozyme 2C9, summary of studies): +
- inhibition at 30 min, 100 μM (CYP2C19): 35.1%
